Source: patent US12655106B2 (Eikonizo Therapeutics, Inc., priority 2021, dated 2026)

Assays:
Full length Human HDAC8 = molecular target: T1, Full length Human HDAC8 (Homo sapiens, UniProt Q9BY41); assay: Caliper endpoint assay for HDAC enzymatic activity (HDAC8); assay type: biochemical; settings: in vitro enzymatic, 30 min pre-incubation, 1 μM substrate peptide
T1 construct: Full length Human HDAC8; HIS (N); host or cells: baculovirus expression system
T1 sequence (Q9BY41 1-377): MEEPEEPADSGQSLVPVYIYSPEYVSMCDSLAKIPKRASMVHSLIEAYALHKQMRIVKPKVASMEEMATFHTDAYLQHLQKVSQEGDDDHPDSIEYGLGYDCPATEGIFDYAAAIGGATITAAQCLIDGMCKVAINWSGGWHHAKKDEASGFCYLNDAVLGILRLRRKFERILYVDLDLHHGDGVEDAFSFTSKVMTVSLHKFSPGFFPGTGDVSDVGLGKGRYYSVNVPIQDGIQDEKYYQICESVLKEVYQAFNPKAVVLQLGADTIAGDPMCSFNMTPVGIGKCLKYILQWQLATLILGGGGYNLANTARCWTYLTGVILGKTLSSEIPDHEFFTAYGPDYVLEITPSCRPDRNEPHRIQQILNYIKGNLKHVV

Full length Human HDAC6 = molecular target: T2, Full length Human HDAC6 (Homo sapiens, UniProt Q9UBN7); assay: Caliper endpoint assay for HDAC enzymatic activity (HDAC6); assay type: biochemical; settings: for IC50: in vitro enzymatic, Caliper endpoint assay, 30 min pre-incubation, 1 μM substrate peptide; for Selectivity (6 v 8): ratio of HDAC8 IC50/HDAC6 IC50
T2 construct: Full length Human HDAC6; FLAG (C); host or cells: baculovirus expression system
T2 sequence (Q9UBN7 1-1215): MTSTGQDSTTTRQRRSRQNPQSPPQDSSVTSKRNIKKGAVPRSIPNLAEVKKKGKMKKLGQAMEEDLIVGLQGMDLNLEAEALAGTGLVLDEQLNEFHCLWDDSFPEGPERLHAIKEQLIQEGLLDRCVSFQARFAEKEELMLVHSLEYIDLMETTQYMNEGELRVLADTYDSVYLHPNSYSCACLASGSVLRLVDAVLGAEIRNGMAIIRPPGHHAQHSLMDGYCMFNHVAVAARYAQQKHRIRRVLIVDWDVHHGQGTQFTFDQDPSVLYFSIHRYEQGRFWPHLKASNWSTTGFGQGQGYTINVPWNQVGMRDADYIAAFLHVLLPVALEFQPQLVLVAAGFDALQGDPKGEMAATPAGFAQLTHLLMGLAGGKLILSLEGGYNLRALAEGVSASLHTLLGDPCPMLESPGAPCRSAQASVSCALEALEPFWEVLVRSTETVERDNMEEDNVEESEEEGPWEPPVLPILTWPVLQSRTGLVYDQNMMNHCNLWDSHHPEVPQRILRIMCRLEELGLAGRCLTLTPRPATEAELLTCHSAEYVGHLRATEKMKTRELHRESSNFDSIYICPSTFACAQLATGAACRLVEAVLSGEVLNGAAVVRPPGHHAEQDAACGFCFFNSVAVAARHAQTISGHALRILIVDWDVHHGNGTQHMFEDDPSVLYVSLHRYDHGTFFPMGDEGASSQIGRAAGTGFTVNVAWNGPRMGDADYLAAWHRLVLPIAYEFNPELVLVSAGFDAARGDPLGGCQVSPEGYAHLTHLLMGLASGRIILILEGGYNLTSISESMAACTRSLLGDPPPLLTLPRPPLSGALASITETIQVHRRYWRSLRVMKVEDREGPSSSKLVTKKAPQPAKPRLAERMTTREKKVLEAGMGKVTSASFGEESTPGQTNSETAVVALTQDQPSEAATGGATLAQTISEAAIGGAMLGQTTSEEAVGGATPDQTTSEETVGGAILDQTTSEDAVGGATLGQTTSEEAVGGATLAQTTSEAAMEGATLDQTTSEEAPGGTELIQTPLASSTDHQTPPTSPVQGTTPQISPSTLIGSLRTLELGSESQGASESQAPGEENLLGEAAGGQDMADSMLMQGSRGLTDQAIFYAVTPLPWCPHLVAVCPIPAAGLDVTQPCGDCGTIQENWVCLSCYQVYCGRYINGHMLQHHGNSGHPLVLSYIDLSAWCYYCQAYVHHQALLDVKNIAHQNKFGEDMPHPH

Row | Structure (SMILES) | IC50 (Full length Human HDAC8) | IC50 (Full length Human HDAC6) | Selectivity (6 v 8) (Full length Human HDAC6)
1 | CN1Cc2cc(C(=O)NO)ccc2[C@H]2CCCN21 (single isomer, unassigned) [Compound 161] | 1000 to 10000 nM | 100 to 1000 nM | 
2 | O=C(NO)c1cc(F)c2c(c1)CCN([C@@H]1CCC3(CCCC3)C1)C2 (single isomer, unassigned) [Compound 184] | 1000 to 10000 nM | 1 to 100 nM | IV (IV: >100-1000)
3 | CN1CC2(CCC(N3CCc4cc(C(=O)NO)cc(F)c4C3)CC2)C1 [Compound 427, 8-fluoro-2-(2-methyl-2-azaspiro[3.5]nonan-7-yl)-3,4-dihydro-1H-isoquinoline-6-carbohydroxamic acid] | 10000 to 100000 nM | 1 to 100 nM | V (V: >1000)
4 | O=C(NO)c1cc(F)c2c(c1)CN(C[C@H]1CCCCO1)CC2 (single isomer, unassigned) [Compound 215] | 100 to 1000 nM | 1 to 100 nM | II (II: >1-10)
5 | CC1(C)C[C@H]2Cc3c(F)cc(C(=O)NO)cc3CN2C1 [Compound 128] | 1000 to 10000 nM | 100 to 1000 nM | III (III: >10-100)
6 | CC[C@@H]1Cc2c(F)cc(C(=O)NO)cc2CN1C[C@H]1C[C@H]2CC[C@@H](C1)N2C (single isomer, unassigned) [Compound 572] | 1000 to 10000 nM | 1 to 100 nM | III (III: >10-100)
7 | O=C(NO)c1cc(F)c2c(c1)CN1CCCC[C@H]1C2 [Compound 146] | 10000 to 100000 nM | 100 to 1000 nM | III (III: >10-100)
8 | CC[C@H]1Cc2c(F)cc(C(=O)NO)cc2CN1C1CCC1 (single isomer, unassigned) [Compound 597] | 10000 to 100000 nM | 100 to 1000 nM | IV (IV: >100-1000)
9 | CC[C@@H]1Cc2c(F)cc(C(=O)NO)cc2CN1CC12CC(NC)(C1)C2 (single isomer, unassigned) [Compound 524] | 1000 to 10000 nM | 1 to 100 nM | III (III: >10-100)
10 | O=C(NO)c1ccc2c(c1)C[C@H]1COCC(=O)N1C2 (single isomer, unassigned) [Compound 134] | 1000 to 10000 nM | 1 to 100 nM | 
11 | CN1CCC[C@]2(CC[C@H]2N2CCc3cc(C(=O)NO)cc(F)c3C2)C1 (single isomer, unassigned) [Compound 363] | 10000 to 100000 nM | 1 to 100 nM | IV (IV: >100-1000)
12 | O=C(NO)c1cc(F)c2c(c1)CCN([C@H]1C[C@@]3(CCCCO3)C1)C2 (single isomer, unassigned) [Compound 340, 8-fluoro-2-(5-oxaspiro[3.5]nonan-2-yl)-3,4-dihydro-1H-isoquinoline-6-carbohydroxamic acid] | 10000 to 100000 nM | 1 to 100 nM | V (V: >1000)
13 | CC[C@H]1Cc2c(F)cc(C(=O)NO)cc2CN1CC12CC(NC(C)=O)(C1)C2 (single isomer, unassigned) [Compound 525] | 1000 to 10000 nM | 1 to 100 nM | III (III: >10-100)
14 | CC1(C)C[C@@H]2Cc3cc(C(=O)NO)cc(F)c3CN2C1 [Compound 126] | 1000 to 10000 nM | 100 to 1000 nM | III (III: >10-100)
15 | CN1C[C@@]2(CN3CCc4cc(C(=O)NO)cc(F)c4C3)C[C@@H]1CO2 [Compound 474, 8-fluoro-2-[[(1S,4R)-5-methyl-2-oxa-5-azabicyclo[2.2.1]heptan-1-yl]methyl]-3,4-dihydro-1H-isoquinoline-6-carbohydroxamic acid] | 1000 to 10000 nM | 1 to 100 nM | IV (IV: >100-1000)
16 | CC[C@H]1Cc2c(F)cc(C(=O)NO)cc2CN1C1CC2(CCN(C)CC2)C1 (single isomer, unassigned) [Compound 595] | 10000 to 100000 nM | 100 to 1000 nM | IV (IV: >100-1000)
